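The compound was tested at five concentrations on cells cultured in 96-well plates, with a 48-hour exposure period. TGI is the concentration that stops growth completely.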
Columns and labels:
Experiment in all cases: NCI-60 cell line screen, 48 h
SW-620 colon = test system: SW-620 colon
UACC-257 melanoma = test system: UACC-257 melanoma
NCI-H226 lung = test system: NCI-H226 lung
OVCAR-5 ovarian = test system: OVCAR-5 ovarian
CCRF-CEM leukemia = test system: CCRF-CEM leukemia
CAKI-1 renal = test system: CAKI-1 renal
OVCAR-4 ovarian = test system: OVCAR-4 ovarian
MDA-MB-231 breast = test system: MDA-MB-231 breast
NCI/ADR-RES ovarian = test system: NCI/ADR-RES ovarian
SR leukemia = test system: SR leukemia
MCF7 breast = test system: MCF7 breast
KM12 colon = test system: KM12 colon
T-47D breast = test system: T-47D breast
MALME-3M melanoma = test system: MALME-3M melanoma
HS 578T breast = test system: HS 578T breast
MOLT-4 leukemia = test system: MOLT-4 leukemia
DU-145 prostate = test system: DU-145 prostate
SNB-19 CNS = test system: SNB-19 CNS
K-562 leukemia = test system: K-562 leukemia
SK-MEL-28 melanoma = test system: SK-MEL-28 melanoma
EKVX NSCLC = test system: EKVX NSCLC
M14 melanoma = test system: M14 melanoma
NCI-H23 lung = test system: NCI-H23 lung
HCT-15 colon = test system: HCT-15 colon
SF-539 CNS = test system: SF-539 CNS
UACC-62 melanoma = test system: UACC-62 melanoma
HCC-2998 colon = test system: HCC-2998 colon
A549 NSCLC = test system: A549 NSCLC
ACHN renal = test system: ACHN renal
SK-MEL-2 melanoma = test system: SK-MEL-2 melanoma
SK-OV-3 ovarian = test system: SK-OV-3 ovarian
SF-268 CNS = test system: SF-268 CNS
IGROV1 ovarian = test system: IGROV1 ovarian
PC-3 prostate = test system: PC-3 prostate
UO-31 renal = test system: UO-31 renal
BT-549 breast = test system: BT-549 breast
NCI-H522 lung = test system: NCI-H522 lung
U251 CNS = test system: U251 CNS
786-0 renal = test system: 786-0 renal
SN12C renal = test system: SN12C renal
TK-10 renal = test system: TK-10 renal
SF-295 CNS = test system: SF-295 CNS
SK-MEL-5 melanoma = test system: SK-MEL-5 melanoma
SNB-75 CNS = test system: SNB-75 CNS
NCI-H460 lung = test system: NCI-H460 lung
HT29 colon = test system: HT29 colon
COLO 205 colon = test system: COLO 205 colon
MDA-N = test system: MDA-N
HOP-62 NSCLC = test system: HOP-62 NSCLC
LOX IMVI melanoma = test system: LOX IMVI melanoma
OVCAR-8 ovarian = test system: OVCAR-8 ovarian
HCT-116 colon = test system: HCT-116 colon
RPMI-8226 leukemia = test system: RPMI-8226 leukemia
OVCAR-3 ovarian = test system: OVCAR-3 ovarian
MDA-MB-435 = test system: MDA-MB-435
HL-60(TB) leukemia = test system: HL-60(TB) leukemia
RXF 393 renal = test system: RXF 393 renal
HOP-92 NSCLC = test system: HOP-92 NSCLC
A498 renal = test system: A498 renal

Measured: TGI

CC1(C)OC(=O)C(C)(C)C(=O)O1
not listed: RPMI-8226 leukemia | OVCAR-3 ovarian | MDA-MB-435 | HL-60(TB) leukemia | RXF 393 renal | HOP-92 NSCLC | A498 renal
> 100 µM: all other assays above

CC1(C)C2CCC3CC(CCC#N)CCC3C21C#N (centres undefined)
not listed: BT-549 breast | SNB-75 CNS
> 100 µM: all other assays above
